Laboratory results as given in PubChem BioAssay (NCI).
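Protocol summary: plate cells (96-well), add compound at 5 concentrations, incubate 48 h, interpolate endpoints linearly. TGI: total growth inhibition.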

test system: UACC-257 melanoma; assay: NCI-60 cell line screen, 48 h

Row | Structure (SMILES) | TGI [µM]
1 | CSc1nnc(SC)nn1 | 30.3
2 | N#CCCC(CCC#N)(CCC#N)NO | > 100
3 | CCOC(=O)c1cn2c(n1)sc1cc(Cl)ccc12 | > 100
4 | CC(C)=C[C@H]1CCC2(OCCO2)[C@]1(C)COCc1ccccc1 | 46.4
5 | COC(=O)c1cc2c(cc1Cl)Sc1nnc(Nc3ccc(C)cc3)n1S2(=O)=O | 25.6
6 | c1ccc(CNc2nncc3[nH]cnc23)cc1 | > 100
7 | CCN1CCN(c2nc3ccccc3c3c2CCOc2ccccc2-3)CC1 | 34.8
8 | N#Cc1c(-c2ccccc2)[nH]c2ccc(Cl)cc2c1=O | > 100
9 | O=c1cc(N2CCCC2)[nH]c(=O)n1-c1cccc(Cl)c1 | > 100
10 | O=C1NC(=S)NC(=O)C1C(c1ccc(O)cc1)C1C(=O)NC(=S)NC1=O | > 100
11 | CC(=O)[C@@H](C)C(=O)N1C(=O)OC[C@@]12[C@@H]1CC[C@@H](C1)C2(C)C | > 100
12 | C/C(=N/NC(N)=S)c1ccc[nH]1 | > 100
13 | CCc1cc(Cc2cc(CC)c(NC(=O)C(=O)CC(=O)c3sc(-c4cccnc4)nc3C)c(CC)c2)cc(CC)c1NC(=O)C(=O)CC(=O)c1sc(-c2cccnc2)nc1C | > 100
14 | NNC(=S)N/N=C(/C(=O)Nc1ccc(Cl)c(Cl)c1)C(C1OC(=O)c2ccccc21)[N+](=O)[O-] (configuration not stated) | > 100
15 | CO/C=C(/C(=O)OC)c1ccccc1COc1cccc(C(F)(F)F)c1 | 21.3
16 | C1=Cc2cc3c(c4nccc(c24)N1)OCO3 | 50.7

test system: HCT-116 colon; assay: NCI-60 cell line screen, 48 h

Row | Structure (SMILES) | TGI [µM]
17 | CC(C)=C[C@H]1CCC2(OCCO2)[C@]1(C)CO | > 100
18 | O=C(N/N=C\C=C\c1ccc([N+](=O)[O-])o1)C(=O)N/N=C\C=C\c1ccc([N+](=O)[O-])o1 | > 100
19 | CSc1nnc(SC)nn1 | 23.9
20 | N#CCCC(CCC#N)(CCC#N)NO | > 100
21 | CCOC(=O)c1cn2c(n1)sc1cc(Cl)ccc12 | 13.6
22 | CC(C)=C[C@H]1CCC2(OCCO2)[C@]1(C)COCc1ccccc1 | > 100
23 | COC(=O)c1cc2c(cc1Cl)Sc1nnc(Nc3ccc(C)cc3)n1S2(=O)=O | 24.5
24 | c1ccc(CNc2nncc3[nH]cnc23)cc1 | > 100
25 | CCN1CCN(c2nc3ccccc3c3c2CCOc2ccccc2-3)CC1 | > 59
26 | N#Cc1c(-c2ccccc2)[nH]c2ccc(Cl)cc2c1=O | > 100
27 | O=C(NCP(=O)(c1ccccc1)c1ccccc1)OCc1ccccc1 | > 100
28 | O=c1cc(N2CCCC2)[nH]c(=O)n1-c1cccc(Cl)c1 | > 100
29 | O=C1NC(=S)NC(=O)C1C(c1ccc(O)cc1)C1C(=O)NC(=S)NC1=O | > 100
30 | CC(=O)[C@@H](C)C(=O)N1C(=O)OC[C@@]12[C@@H]1CC[C@@H](C1)C2(C)C | > 100
31 | C/C(=N/NC(N)=S)c1ccc[nH]1 | > 100
32 | CCc1cc(Cc2cc(CC)c(NC(=O)C(=O)CC(=O)c3sc(-c4cccnc4)nc3C)c(CC)c2)cc(CC)c1NC(=O)C(=O)CC(=O)c1sc(-c2cccnc2)nc1C | > 100
33 | NNC(=S)N/N=C(/C(=O)Nc1ccc(Cl)c(Cl)c1)C(C1OC(=O)c2ccccc21)[N+](=O)[O-] (configuration not stated) | > 100
34 | CO/C=C(/C(=O)OC)c1ccccc1COc1cccc(C(F)(F)F)c1 | > 100
35 | C1=Cc2cc3c(c4nccc(c24)N1)OCO3 | 17

test system: MDA-MB-435; assay: NCI-60 cell line screen, 48 h

Row | Structure (SMILES) | TGI [µM]
36 | CC(C)=C[C@H]1CCC2(OCCO2)[C@]1(C)CO | > 100
37 | O=C(N/N=C\C=C\c1ccc([N+](=O)[O-])o1)C(=O)N/N=C\C=C\c1ccc([N+](=O)[O-])o1 | > 100
38 | CSc1nnc(SC)nn1 | 32.4
39 | N#CCCC(CCC#N)(CCC#N)NO | > 100
40 | CCOC(=O)c1cn2c(n1)sc1cc(Cl)ccc12 | > 100
41 | CC(C)=C[C@H]1CCC2(OCCO2)[C@]1(C)COCc1ccccc1 | > 100
42 | COC(=O)c1cc2c(cc1Cl)Sc1nnc(Nc3ccc(C)cc3)n1S2(=O)=O | 21.1
43 | c1ccc(CNc2nncc3[nH]cnc23)cc1 | > 100
44 | CCN1CCN(c2nc3ccccc3c3c2CCOc2ccccc2-3)CC1 | > 62.7
45 | N#Cc1c(-c2ccccc2)[nH]c2ccc(Cl)cc2c1=O | > 100
46 | O=C(NCP(=O)(c1ccccc1)c1ccccc1)OCc1ccccc1 | > 100
47 | O=c1cc(N2CCCC2)[nH]c(=O)n1-c1cccc(Cl)c1 | > 100
48 | O=C1NC(=S)NC(=O)C1C(c1ccc(O)cc1)C1C(=O)NC(=S)NC1=O | > 100
49 | CC(=O)[C@@H](C)C(=O)N1C(=O)OC[C@@]12[C@@H]1CC[C@@H](C1)C2(C)C | > 100
50 | C/C(=N/NC(N)=S)c1ccc[nH]1 | > 100
51 | CCc1cc(Cc2cc(CC)c(NC(=O)C(=O)CC(=O)c3sc(-c4cccnc4)nc3C)c(CC)c2)cc(CC)c1NC(=O)C(=O)CC(=O)c1sc(-c2cccnc2)nc1C | > 100
52 | NNC(=S)N/N=C(/C(=O)Nc1ccc(Cl)c(Cl)c1)C(C1OC(=O)c2ccccc21)[N+](=O)[O-] (configuration not stated) | > 100
53 | CO/C=C(/C(=O)OC)c1ccccc1COc1cccc(C(F)(F)F)c1 | 23.1
54 | C1=Cc2cc3c(c4nccc(c24)N1)OCO3 | > 56.1

test system: NCI-H522 lung; assay: NCI-60 cell line screen, 48 h

Row | Structure (SMILES) | TGI [µM]
55 | CC(C)=C[C@H]1CCC2(OCCO2)[C@]1(C)CO | > 100
56 | O=C(N/N=C\C=C\c1ccc([N+](=O)[O-])o1)C(=O)N/N=C\C=C\c1ccc([N+](=O)[O-])o1 | > 100
57 | CSc1nnc(SC)nn1 | 31.6
58 | N#CCCC(CCC#N)(CCC#N)NO | 46.1
59 | CCOC(=O)c1cn2c(n1)sc1cc(Cl)ccc12 | > 100
60 | CC(C)=C[C@H]1CCC2(OCCO2)[C@]1(C)COCc1ccccc1 | 62.1
61 | COC(=O)c1cc2c(cc1Cl)Sc1nnc(Nc3ccc(C)cc3)n1S2(=O)=O | 10.3
62 | c1ccc(CNc2nncc3[nH]cnc23)cc1 | > 100
63 | CCN1CCN(c2nc3ccccc3c3c2CCOc2ccccc2-3)CC1 | > 62.3
64 | N#Cc1c(-c2ccccc2)[nH]c2ccc(Cl)cc2c1=O | > 100
65 | O=C(NCP(=O)(c1ccccc1)c1ccccc1)OCc1ccccc1 | > 100
66 | O=c1cc(N2CCCC2)[nH]c(=O)n1-c1cccc(Cl)c1 | > 100
67 | O=C1NC(=S)NC(=O)C1C(c1ccc(O)cc1)C1C(=O)NC(=S)NC1=O | > 100
68 | CC(=O)[C@@H](C)C(=O)N1C(=O)OC[C@@]12[C@@H]1CC[C@@H](C1)C2(C)C | > 100
69 | C/C(=N/NC(N)=S)c1ccc[nH]1 | > 100
70 | CCc1cc(Cc2cc(CC)c(NC(=O)C(=O)CC(=O)c3sc(-c4cccnc4)nc3C)c(CC)c2)cc(CC)c1NC(=O)C(=O)CC(=O)c1sc(-c2cccnc2)nc1C | > 100
71 | NNC(=S)N/N=C(/C(=O)Nc1ccc(Cl)c(Cl)c1)C(C1OC(=O)c2ccccc21)[N+](=O)[O-] (configuration not stated) | > 100
72 | CO/C=C(/C(=O)OC)c1ccccc1COc1cccc(C(F)(F)F)c1 | 5.86
73 | C1=Cc2cc3c(c4nccc(c24)N1)OCO3 | 26.2

test system: NCI-H226 lung; assay: NCI-60 cell line screen, 48 h

Row | Structure (SMILES) | TGI [µM]
74 | CC(C)=C[C@H]1CCC2(OCCO2)[C@]1(C)CO | > 100
75 | O=C(N/N=C\C=C\c1ccc([N+](=O)[O-])o1)C(=O)N/N=C\C=C\c1ccc([N+](=O)[O-])o1 | > 100
76 | CSc1nnc(SC)nn1 | 96.5
77 | N#CCCC(CCC#N)(CCC#N)NO | > 100
78 | CCOC(=O)c1cn2c(n1)sc1cc(Cl)ccc12 | > 100
79 | CC(C)=C[C@H]1CCC2(OCCO2)[C@]1(C)COCc1ccccc1 | 46.8
80 | COC(=O)c1cc2c(cc1Cl)Sc1nnc(Nc3ccc(C)cc3)n1S2(=O)=O | 28.2
81 | c1ccc(CNc2nncc3[nH]cnc23)cc1 | > 100
82 | CCN1CCN(c2nc3ccccc3c3c2CCOc2ccccc2-3)CC1 | > 77.9
83 | N#Cc1c(-c2ccccc2)[nH]c2ccc(Cl)cc2c1=O | > 100
84 | O=C(NCP(=O)(c1ccccc1)c1ccccc1)OCc1ccccc1 | > 100
85 | O=c1cc(N2CCCC2)[nH]c(=O)n1-c1cccc(Cl)c1 | > 100
86 | O=C1NC(=S)NC(=O)C1C(c1ccc(O)cc1)C1C(=O)NC(=S)NC1=O | > 100
87 | CC(=O)[C@@H](C)C(=O)N1C(=O)OC[C@@]12[C@@H]1CC[C@@H](C1)C2(C)C | > 100
88 | C/C(=N/NC(N)=S)c1ccc[nH]1 | > 100
89 | CCc1cc(Cc2cc(CC)c(NC(=O)C(=O)CC(=O)c3sc(-c4cccnc4)nc3C)c(CC)c2)cc(CC)c1NC(=O)C(=O)CC(=O)c1sc(-c2cccnc2)nc1C | > 100
90 | NNC(=S)N/N=C(/C(=O)Nc1ccc(Cl)c(Cl)c1)C(C1OC(=O)c2ccccc21)[N+](=O)[O-] (configuration not stated) | > 100
91 | CO/C=C(/C(=O)OC)c1ccccc1COc1cccc(C(F)(F)F)c1 | 71.2
92 | C1=Cc2cc3c(c4nccc(c24)N1)OCO3 | 36.7
